Measurements published in patent US20050053647A1, “Pharmaceutical product comprising the active substance diamorphine, and its use in a process for treating opiate addiction” (priority 1999, published 2005).
Values after ≈ are worked out from the molar mass of the structure shown.

Experiments:
heroin addicts = conditions: cited from earlier work
[1] = Rate of hydrolytic breakdown of diamorphine base in solvents (diamorphine content over time); conditions: for Diamorphine content: area percentages
[2] = In vitro skin permeation from TTS, nude guinea pig skin model; assay type: in vitro ADME
Experimental: Diamorphine is determined as total of heroin+morphine metabolite.

[3] = Saturation solubility of diamorphine base in solvents

For `CC(=O)Oc1ccc2c3c1O[C@H]1[C@@H](OC(C)=O)C=C[C@H]4[C@@H](C2)N(C)CC[C@@]341` [diamorphine base, diamorphine], the “State of health of the heroin addicts” value (heroin addicts; state-controlled administration, intravenous or pulmonary (cigarettes), 969 heroin addicts) is listed as “Marked improvements”, the “Effect of combinations of vitamin E with a further aprotic solvent on the rate of hydrolytic breakdown” value ([1]; combinations of vitamin E with solvent (Table 1)) is listed as “surprisingly positive stabilizing effect” and the Diamorphine content ([1]; solvent Benzyl nicotinate/Vitamin E 1:1, t = 0.5 h) is listed as 99.2%. For the same compound, the Diamorphine content ([1]; solvent Benzyl nicotinate/Vitamin E 1:1, t = 24 h) was 99.0%, the Diamorphine content ([1]; solvent Benzyl nicotinate, t = 0.5 h) was 97.8% and the Diamorphine content ([1]; solvent Benzyl nicotinate, t = 24 h) was 86.5%. It also gave a Diamorphine content ([1]; solvent Dimethylisosorbide/Vitamin E 1:1, t = 0.5 h) of 100%, a Diamorphine content ([1]; solvent Dimethylisosorbide/Vitamin E 1:1, t = 24 h) of 99.8% and a Diamorphine content ([1]; solvent Dimethylisosorbide, t = 0.5 h) of 98.5%. For the same compound, the Diamorphine content ([1]; solvent Dimethylisosorbide, t = 24 h) was 93.5%, the Diamorphine content ([1]; solvent Lemon oil/Vitamin E 1:1, t = 0.5 h) was 99.1% and the Diamorphine content ([1]; solvent Lemon oil/Vitamin E 1:1, t = 24 h) was 98.9%. For the same compound, the Diamorphine content ([1]; solvent Lemon oil, t = 0.5 h) was 93.5%, the Diamorphine content ([1]; solvent Lemon oil, t = 24 h) was 80.5% and the Diamorphine content ([1]; solvent N-Methylpyrrolidone/Vitamin E 1:1, t = 0.5 h) was 99.8%. The Diamorphine content ([1]; solvent N-Methylpyrrolidone/Vitamin E 1:1, t = 24 h) was 99.7%, the Diamorphine content ([1]; solvent N-Methylpyrrolidone, t = 0.5 h) was 97.8% and the Diamorphine content ([1]; solvent N-Methylpyrrolidone, t = 24 h) was 87.8%. For the same compound, the Diamorphine content ([1]; solvent Oleic acid/Vitamin E 1:1, t = 0.5 h) was 99.6%, the Diamorphine content ([1]; solvent Oleic acid/Vitamin E 1:1, t = 24 h) was 99.6% and the Diamorphine content ([1]; solvent Oleic acid, t = 0.5 h) was 97.4%. It also gave a Diamorphine content ([1]; solvent Oleic acid, t = 24 h) of 90.3%, a Diamorphine content ([1]; solvent R-(+)-Limonene/Vitamin E 1:1, t = 0.5 h) of 99.7% and a Diamorphine content ([1]; solvent R-(+)-Limonene/Vitamin E 1:1, t = 24 h) of 99.6%. The Diamorphine content ([1]; solvent R-(+)-Limonene, t = 0.5 h) was 96.7%, the Diamorphine content ([1]; solvent R-(+)-Limonene, t = 24 h) was 87.7% and the Diamorphine content ([1]; solvent Tween 80/Vitamin E 1:1, t = 0.5 h) was 100%. The Diamorphine content ([1]; solvent Tween 80/Vitamin E 1:1, t = 24 h) was 100%, the Diamorphine content ([1]; solvent Tween 80, t = 0.5 h) was 99% and the Diamorphine content ([1]; solvent Tween 80, t = 24 h) was 93.4%. For the same compound, the Diamorphine content ([1]; solvent Vitamin E, t = 0.5 h) was 100%, the Diamorphine content ([1]; solvent Vitamin E, t = 24 h) was 100% and the “Skin passage in relation to morphine and buprenorphine” value ([2]; TTS matrix of same base formulation and loading, citrate buffer pH=3.0 + 0,1% NaN3, T=37° C., diamorphine determined as total of heroin + morphine metabolite) was “better skin passage”. For the same compound, the “Skin flux in flow equilibrium (permeation rate) compared with morphine and buprenorphine” value ([2]; nude guinea pig skin, TTS of identical formulation, in some cases) was “markedly higher”, the solubility ([3]; Benzyl nicotinate, organic solvent or mixture) was 23.2 mg/mL (≈ 62.8 mM) and the solubility ([3]; Benzyl nicotinate/Vitamin E 1:1, organic solvent or mixture) was 17.7 mg/mL (≈ 47.9 mM). It also gave a solubility ([3]; Dimethylisosorbide, organic solvent or mixture) of 12.8 mg/mL (≈ 34.6 mM), a solubility ([3]; Dimethylisosorbide/Vitamin E 1:1, organic solvent or mixture) of 9.82 mg/mL (≈ 26.6 mM) and a solubility ([3]; Lemon oil, oil or lipid) of 10.3 mg/mL (≈ 27.9 mM). It also gave a solubility ([3]; Lemon oil/Vitamin E 1:1, oil or lipid) of 8 mg/mL (≈ 21.7 mM), a solubility ([3]; N-Methylpyrrolidone, organic solvent or mixture) of 32.2 mg/mL (≈ 87.2 mM) and a solubility ([3]; N-Methylpyrrolidone/Vitamin E 1:1, organic solvent or mixture) of 24.8 mg/mL (≈ 67.1 mM). It also gave a solubility ([3]; Oleic acid, oil or lipid) of 22.6 mg/mL (≈ 61.2 mM), a solubility ([3]; Oleic acid/Vitamin E 1:1, oil or lipid) of 17.2 mg/mL (≈ 46.6 mM) and a solubility ([3]; R-(+)-Limonene, organic solvent or mixture) of 25.1 mg/mL (≈ 67.9 mM). For the same compound, the solubility ([3]; R-(+)-Limonene/Vitamin E 1:1, organic solvent or mixture) was 19 mg/mL (≈ 51.4 mM), the solubility ([3]; Tween 80, organic solvent or mixture) was 5.81 mg/mL (≈ 15.7 mM) and the solubility ([3]; Tween 80/Vitamin E 1:1, organic solvent or mixture) was 4.45 mg/mL (≈ 12 mM). It also gave a solubility ([3]; Vitamin E, oil or lipid) of 1.62 mg/mL (≈ 4.39 mM).

In the case of `CCC(=O)C(CC(C)N(C)C)(c1ccccc1)c1ccccc1` (centres unmarked) [methadone], the “Therapy of heroin dependents compared with heroin” value (heroin addicts; even on intravenous administration, Swiss experiment) is listed as “inferior to heroin”.
